Experimental data taken from ChEMBL document CHEMBL4507302, “Data for DCP probe TP-020” (2021).

Tests used:
[1] = target: Ephrin type-A receptor 4 (Homo sapiens) (UniProt P54764); conditions: Compound concentration 1000.0 nM
[2] = target: MAP kinase-interacting serine/threonine-protein kinase 1 (Homo sapiens) (UniProt Q9BUB5); conditions: Compound concentration 1000.0 nM
[3] = target: Interleukin-1 receptor-associated kinase 4 (Homo sapiens) (UniProt Q9NWZ3); conditions: Compound concentration 1000.0 nM
[4] = target: Non-receptor tyrosine-protein kinase TNK1 (Homo sapiens) (UniProt Q13470); conditions: Compound concentration 1000.0 nM
[5] = system: Tyrosine-protein kinase ABL1 (Homo sapiens), P00519 [F317L]; conditions: Compound concentration 1000.0 nM
[6] = target: Hormonally up-regulated neu tumor-associated kinase (Homo sapiens) (UniProt P57058); conditions: Compound concentration 1000.0 nM
[7] = target: Inhibitor of nuclear factor kappa-B kinase subunit beta (Homo sapiens) (UniProt O14920); conditions: Compound concentration 1000.0 nM
[8] = target: Atypical kinase COQ8B, mitochondrial (Homo sapiens) (UniProt Q96D53); conditions: Compound concentration 1000.0 nM
[9] = target: Serine/threonine-protein kinase WNK4 (Homo sapiens) (UniProt Q96J92); conditions: Compound concentration 1000.0 nM
[10] = system: Phosphatidylinositol 4,5-bisphosphate 3-kinase catalytic subunit alpha isoform (Homo sapiens), P42336 [C420R]; conditions: Compound concentration 1000.0 nM
[11] = system: Leucine-rich repeat serine/threonine-protein kinase 2 (Homo sapiens), Q5S007 [G2019S]; conditions: Compound concentration 1000.0 nM
[12] = target: Cyclin-dependent kinase 4 (Homo sapiens) (UniProt P11802); conditions: Compound concentration 1000.0 nM
[13] = target: Dual specificity mitogen-activated protein kinase kinase 2 (Homo sapiens) (UniProt P36507); conditions: Compound concentration 1000.0 nM
[14] = target: Ephrin type-B receptor 6 (Homo sapiens) (UniProt O15197); conditions: Compound concentration 1000.0 nM
[15] = target: Ankyrin repeat and protein kinase domain-containing protein 1 (Homo sapiens) (UniProt Q8NFD2); conditions: Compound concentration 1000.0 nM
[16] = target: Dual specificity mitogen-activated protein kinase kinase 6 (Homo sapiens) (UniProt P52564); conditions: Compound concentration 1000.0 nM
[17] = target: Tyrosine-protein kinase receptor Tie-1 (Homo sapiens) (UniProt P35590); conditions: Compound concentration 1000.0 nM
[18] = target: Mitogen-activated protein kinase kinase kinase 12 (Homo sapiens) (UniProt Q12852); conditions: Compound concentration 1000.0 nM
[19] = system: Receptor-type tyrosine-protein kinase FLT3 (Homo sapiens), P36888 [UNDEFINED MUTATION]; conditions: Compound concentration 1000.0 nM
[20] = target: STE20-like serine/threonine-protein kinase (Homo sapiens) (UniProt Q9H2G2); conditions: Compound concentration 1000.0 nM
[21] = target: Phosphatidylinositol 4,5-bisphosphate 3-kinase catalytic subunit delta isoform (Homo sapiens) (UniProt O00329); conditions: Compound concentration 1000.0 nM
[22] = target: Casein kinase I isoform alpha (Homo sapiens) (UniProt P48729); conditions: Compound concentration 1000.0 nM
[23] = target: Serine/threonine-protein kinase PAK 4 (Homo sapiens) (UniProt O96013); conditions: Compound concentration 1000.0 nM
[24] = target: Serine/threonine-protein kinase BRSK2 (Homo sapiens) (UniProt Q8IWQ3); conditions: Compound concentration 1000.0 nM
[25] = target: Dual specificity tyrosine-phosphorylation-regulated kinase 1B (Homo sapiens) (UniProt Q9Y463); conditions: Compound concentration 1000.0 nM
[26] = target: Mitogen-activated protein kinase 8 (Homo sapiens) (UniProt P45983); conditions: Compound concentration 1000.0 nM
[27] = target: Ephrin type-A receptor 6 (Homo sapiens) (UniProt Q9UF33); conditions: Compound concentration 1000.0 nM
[28] = system: Proto-oncogene tyrosine-protein kinase receptor Ret (Homo sapiens), P07949 [M918T]; conditions: Compound concentration 1000.0 nM
[29] = target: Dual serine/threonine and tyrosine protein kinase (Homo sapiens) (UniProt Q6XUX3); conditions: Compound concentration 1000.0 nM
[30] = target: Bone morphogenetic protein receptor type-1A (Homo sapiens) (UniProt P36894); conditions: Compound concentration 1000.0 nM
[31] = target: Muscle, skeletal receptor tyrosine-protein kinase (Homo sapiens) (UniProt O15146); conditions: Compound concentration 1000.0 nM
[32] = target: Serine/threonine-protein kinase MAK (Homo sapiens) (UniProt P20794); conditions: Compound concentration 1000.0 nM
[33] = target: Cyclin-dependent kinase 11B (Homo sapiens) (UniProt P21127); conditions: Compound concentration 1000.0 nM
[34] = target: Mitogen-activated protein kinase 6 (Homo sapiens) (UniProt Q16659); conditions: Compound concentration 1000.0 nM
[35] = target: Death-associated protein kinase 1 (Homo sapiens) (UniProt P53355); conditions: Compound concentration 1000.0 nM
[36] = target: Tyrosine-protein kinase CSK (Homo sapiens) (UniProt P41240); conditions: Compound concentration 1000.0 nM
[37] = system: Phosphatidylinositol 4,5-bisphosphate 3-kinase catalytic subunit alpha isoform (Homo sapiens), P42336 [E545K]; conditions: Compound concentration 1000.0 nM
[38] = target: 5-hydroxytryptamine receptor 1D (Homo sapiens, UniProt P28221); conditions: Compound concentration 10.0 uM
[39] = target: Cyclin-dependent kinase 5 (Homo sapiens) (UniProt Q00535); conditions: Compound concentration 1000.0 nM
[40] = target: Calcium/calmodulin-dependent protein kinase type 1G (Homo sapiens) (UniProt Q96NX5); conditions: Compound concentration 1000.0 nM
[41] = target: Mast/stem cell growth factor receptor Kit (Homo sapiens) (UniProt P10721); conditions: Compound concentration 1000.0 nM
[42] = system: Tyrosine-protein kinase ABL1 (Homo sapiens), P00519 [F317I]; conditions: Compound concentration 1000.0 nM
[43] = target: Phosphatidylinositol 4-phosphate 3-kinase C2 domain-containing subunit beta (Homo sapiens) (UniProt O00750); conditions: Compound concentration 1000.0 nM
[44] = target: Ribosomal protein S6 kinase alpha-6 (Homo sapiens) (UniProt Q9UK32); conditions: Compound concentration 1000.0 nM

Chain of Casein kinase I isoform alpha (Homo sapiens) (P48729 2-337 limits assumed): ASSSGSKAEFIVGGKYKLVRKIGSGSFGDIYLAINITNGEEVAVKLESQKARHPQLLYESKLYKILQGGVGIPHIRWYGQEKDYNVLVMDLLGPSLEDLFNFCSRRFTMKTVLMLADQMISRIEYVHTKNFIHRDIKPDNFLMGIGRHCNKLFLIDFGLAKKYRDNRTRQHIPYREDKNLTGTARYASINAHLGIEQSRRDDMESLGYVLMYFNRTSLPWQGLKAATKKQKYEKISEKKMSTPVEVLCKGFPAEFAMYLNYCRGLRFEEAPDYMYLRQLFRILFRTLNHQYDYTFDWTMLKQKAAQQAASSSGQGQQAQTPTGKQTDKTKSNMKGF
Chain of Tyrosine-protein kinase ABL1 (Homo sapiens), P00519 [F317L] (P00519 whole entry F317L): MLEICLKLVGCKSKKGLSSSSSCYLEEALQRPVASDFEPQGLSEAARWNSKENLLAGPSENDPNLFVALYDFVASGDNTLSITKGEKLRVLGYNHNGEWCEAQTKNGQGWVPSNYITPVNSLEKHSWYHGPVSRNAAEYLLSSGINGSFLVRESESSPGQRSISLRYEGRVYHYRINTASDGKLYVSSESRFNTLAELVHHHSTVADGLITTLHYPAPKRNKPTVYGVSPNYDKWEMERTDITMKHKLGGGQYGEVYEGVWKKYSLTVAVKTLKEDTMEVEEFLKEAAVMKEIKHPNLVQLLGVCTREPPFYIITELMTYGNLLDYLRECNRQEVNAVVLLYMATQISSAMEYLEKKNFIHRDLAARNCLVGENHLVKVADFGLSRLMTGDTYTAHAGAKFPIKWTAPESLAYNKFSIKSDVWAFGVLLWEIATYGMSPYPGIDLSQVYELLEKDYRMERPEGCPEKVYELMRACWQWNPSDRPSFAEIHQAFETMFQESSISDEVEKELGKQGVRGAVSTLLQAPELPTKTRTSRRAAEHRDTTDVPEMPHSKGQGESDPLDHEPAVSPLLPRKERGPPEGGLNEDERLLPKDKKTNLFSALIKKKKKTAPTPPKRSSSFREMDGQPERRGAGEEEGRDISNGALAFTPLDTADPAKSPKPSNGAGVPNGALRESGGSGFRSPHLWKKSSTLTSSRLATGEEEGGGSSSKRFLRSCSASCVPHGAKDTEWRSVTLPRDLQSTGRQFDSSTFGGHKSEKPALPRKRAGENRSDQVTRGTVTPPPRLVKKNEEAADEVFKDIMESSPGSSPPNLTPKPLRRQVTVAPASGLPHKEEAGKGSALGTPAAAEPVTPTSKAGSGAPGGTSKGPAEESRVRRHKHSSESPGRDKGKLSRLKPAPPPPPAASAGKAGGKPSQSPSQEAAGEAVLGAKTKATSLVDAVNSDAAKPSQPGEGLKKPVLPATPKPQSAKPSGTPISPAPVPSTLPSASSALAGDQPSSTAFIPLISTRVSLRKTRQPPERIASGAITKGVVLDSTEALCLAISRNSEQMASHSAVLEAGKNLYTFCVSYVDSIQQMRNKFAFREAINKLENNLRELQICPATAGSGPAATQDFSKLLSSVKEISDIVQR
Chain of Ephrin type-B receptor 6 (Homo sapiens) (O15197 whole entry, the tested form may be a part): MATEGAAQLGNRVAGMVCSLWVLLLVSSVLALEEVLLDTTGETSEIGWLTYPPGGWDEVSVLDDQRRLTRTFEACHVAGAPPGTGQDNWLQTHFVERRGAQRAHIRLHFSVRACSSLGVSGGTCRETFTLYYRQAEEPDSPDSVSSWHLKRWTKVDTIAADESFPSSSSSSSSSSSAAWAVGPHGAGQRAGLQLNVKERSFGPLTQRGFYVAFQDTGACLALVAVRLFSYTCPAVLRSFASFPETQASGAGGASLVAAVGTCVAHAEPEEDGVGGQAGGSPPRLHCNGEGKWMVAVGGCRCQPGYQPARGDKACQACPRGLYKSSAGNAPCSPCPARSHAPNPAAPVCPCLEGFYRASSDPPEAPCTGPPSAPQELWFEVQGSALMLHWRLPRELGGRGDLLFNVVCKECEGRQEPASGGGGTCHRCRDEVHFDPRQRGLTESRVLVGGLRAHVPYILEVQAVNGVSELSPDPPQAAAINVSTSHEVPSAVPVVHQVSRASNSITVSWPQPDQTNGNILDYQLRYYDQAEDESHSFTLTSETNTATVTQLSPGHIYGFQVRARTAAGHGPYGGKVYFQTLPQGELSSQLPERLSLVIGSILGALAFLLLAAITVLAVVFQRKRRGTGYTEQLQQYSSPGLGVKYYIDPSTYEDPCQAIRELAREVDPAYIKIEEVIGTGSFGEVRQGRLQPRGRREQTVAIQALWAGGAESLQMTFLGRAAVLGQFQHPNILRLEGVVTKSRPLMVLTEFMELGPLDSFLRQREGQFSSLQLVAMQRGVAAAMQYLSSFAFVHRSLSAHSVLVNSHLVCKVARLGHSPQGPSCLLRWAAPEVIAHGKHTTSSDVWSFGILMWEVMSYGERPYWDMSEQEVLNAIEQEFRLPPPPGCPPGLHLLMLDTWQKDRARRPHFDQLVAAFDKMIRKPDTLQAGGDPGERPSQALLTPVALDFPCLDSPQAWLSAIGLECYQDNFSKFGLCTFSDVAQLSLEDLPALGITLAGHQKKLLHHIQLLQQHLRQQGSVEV
Chain of Non-receptor tyrosine-protein kinase TNK1 (Homo sapiens) (Q13470 whole entry): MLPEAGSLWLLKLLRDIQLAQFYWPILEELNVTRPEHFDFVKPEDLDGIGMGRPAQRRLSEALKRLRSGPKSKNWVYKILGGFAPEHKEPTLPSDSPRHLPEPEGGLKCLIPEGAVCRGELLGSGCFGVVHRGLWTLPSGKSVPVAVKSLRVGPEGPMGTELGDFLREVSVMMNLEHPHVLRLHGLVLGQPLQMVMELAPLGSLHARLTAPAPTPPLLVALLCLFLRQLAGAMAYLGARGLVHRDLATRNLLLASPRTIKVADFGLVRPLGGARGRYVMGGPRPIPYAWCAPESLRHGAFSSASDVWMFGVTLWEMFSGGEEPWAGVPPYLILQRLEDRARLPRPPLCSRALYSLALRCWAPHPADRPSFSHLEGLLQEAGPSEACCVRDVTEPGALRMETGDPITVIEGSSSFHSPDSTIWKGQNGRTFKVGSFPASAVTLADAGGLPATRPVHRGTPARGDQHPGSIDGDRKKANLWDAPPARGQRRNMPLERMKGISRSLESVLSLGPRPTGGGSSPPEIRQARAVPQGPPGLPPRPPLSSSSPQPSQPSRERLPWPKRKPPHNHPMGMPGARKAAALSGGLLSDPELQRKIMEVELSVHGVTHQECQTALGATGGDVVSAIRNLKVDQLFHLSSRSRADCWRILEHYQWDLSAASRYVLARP
Chain of MAP kinase-interacting serine/threonine-protein kinase 1 (Homo sapiens) (Q9BUB5 whole entry, looked up): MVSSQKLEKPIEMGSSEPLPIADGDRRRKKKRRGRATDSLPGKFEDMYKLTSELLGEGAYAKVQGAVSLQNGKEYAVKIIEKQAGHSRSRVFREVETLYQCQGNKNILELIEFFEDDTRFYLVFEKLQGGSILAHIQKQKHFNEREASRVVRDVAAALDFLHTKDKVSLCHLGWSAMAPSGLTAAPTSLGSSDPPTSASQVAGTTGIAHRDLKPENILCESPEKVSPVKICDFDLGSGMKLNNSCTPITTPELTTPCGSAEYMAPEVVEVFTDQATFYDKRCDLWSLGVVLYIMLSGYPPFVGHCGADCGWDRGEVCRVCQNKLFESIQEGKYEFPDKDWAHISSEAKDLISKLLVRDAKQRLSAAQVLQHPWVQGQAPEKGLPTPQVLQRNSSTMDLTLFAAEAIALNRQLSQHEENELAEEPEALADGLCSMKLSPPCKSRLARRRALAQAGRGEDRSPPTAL
Chain of Dual specificity mitogen-activated protein kinase kinase 6 (Homo sapiens) (P52564 whole entry): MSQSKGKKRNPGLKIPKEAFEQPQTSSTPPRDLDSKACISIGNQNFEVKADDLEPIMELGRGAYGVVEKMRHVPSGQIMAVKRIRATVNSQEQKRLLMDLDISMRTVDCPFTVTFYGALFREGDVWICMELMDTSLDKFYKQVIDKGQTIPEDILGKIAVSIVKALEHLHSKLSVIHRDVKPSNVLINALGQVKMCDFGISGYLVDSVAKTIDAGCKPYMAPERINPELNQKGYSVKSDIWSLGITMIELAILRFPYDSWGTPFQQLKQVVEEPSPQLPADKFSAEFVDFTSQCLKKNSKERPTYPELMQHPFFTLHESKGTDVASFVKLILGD
Chain of Proto-oncogene tyrosine-protein kinase receptor Ret (Homo sapiens), P07949 [M918T] (P07949 whole entry M918T): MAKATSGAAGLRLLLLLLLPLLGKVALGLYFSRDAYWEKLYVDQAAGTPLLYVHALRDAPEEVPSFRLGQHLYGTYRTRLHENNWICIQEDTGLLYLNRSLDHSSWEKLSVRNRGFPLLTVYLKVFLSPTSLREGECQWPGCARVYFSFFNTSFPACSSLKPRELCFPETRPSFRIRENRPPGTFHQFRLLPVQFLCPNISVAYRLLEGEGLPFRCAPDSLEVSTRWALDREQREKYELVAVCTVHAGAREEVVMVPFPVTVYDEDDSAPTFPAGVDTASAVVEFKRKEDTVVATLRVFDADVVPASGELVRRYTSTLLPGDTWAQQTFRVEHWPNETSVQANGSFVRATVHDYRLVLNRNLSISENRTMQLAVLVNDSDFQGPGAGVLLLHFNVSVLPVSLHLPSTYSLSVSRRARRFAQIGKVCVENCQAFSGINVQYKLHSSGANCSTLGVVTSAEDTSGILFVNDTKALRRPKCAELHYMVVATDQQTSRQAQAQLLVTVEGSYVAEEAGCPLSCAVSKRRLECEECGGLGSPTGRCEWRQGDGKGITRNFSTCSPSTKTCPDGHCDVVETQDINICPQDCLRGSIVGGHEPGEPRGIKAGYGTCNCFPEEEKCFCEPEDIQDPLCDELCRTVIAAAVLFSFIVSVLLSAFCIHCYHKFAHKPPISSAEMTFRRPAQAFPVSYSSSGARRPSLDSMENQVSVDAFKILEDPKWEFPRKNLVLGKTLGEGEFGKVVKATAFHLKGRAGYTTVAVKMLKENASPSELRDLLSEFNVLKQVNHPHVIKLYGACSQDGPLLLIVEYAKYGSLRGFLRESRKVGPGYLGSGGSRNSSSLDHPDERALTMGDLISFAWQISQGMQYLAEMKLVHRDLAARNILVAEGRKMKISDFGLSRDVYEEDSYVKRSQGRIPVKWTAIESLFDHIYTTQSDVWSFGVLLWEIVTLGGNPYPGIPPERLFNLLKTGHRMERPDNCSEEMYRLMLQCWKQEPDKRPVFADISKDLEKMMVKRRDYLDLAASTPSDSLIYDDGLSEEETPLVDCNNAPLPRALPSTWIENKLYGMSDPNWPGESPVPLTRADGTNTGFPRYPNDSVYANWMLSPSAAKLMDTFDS

## Nc1cnc(N2CCc3cc(S(=O)(=O)Nc4c(F)cc(Cl)cc4F)cc(N4CCCC4=O)c32)nc1
[1]
  residual activity: 100%
[2]
  residual activity: 98%
[3]
  residual activity: 100%
[4]
  residual activity: 100%
[5]
  residual activity: 78%
[6]
  residual activity: 99%
[7]
  residual activity: 96%
[8]
  residual activity: 100%
[9]
  residual activity: 100%
[10]
  residual activity: 84%
[11]
  residual activity: 81%
[12]
  residual activity: 86%
[13]
  residual activity: 92%
[14]
  residual activity: 100%
[15]
  residual activity: 100%
[16]
  residual activity: 71%
[17]
  residual activity: 100%
[18]
  residual activity: 100%
[19]
  residual activity: 100%
[20]
  residual activity: 100%
[21]
  residual activity: 88%
[22]
  residual activity: 100%
[23]
  residual activity: 89%
[24]
  residual activity: 80%
[25]
  residual activity: 100%
[26]
  residual activity: 78%
[27]
  residual activity: 98%
[28]
  residual activity: 100%
[29]
  residual activity: 100%
[30]
  residual activity: 91%
[31]
  residual activity: 100%
[32]
  residual activity: 96%
[33]
  residual activity: 100%
[34]
  residual activity: 100%
[35]
  residual activity: 100%
[36]
  residual activity: 99%
[37]
  residual activity: 100%
[38]
  inhibition: 9.24%
[39]
  residual activity: 100%
[40]
  residual activity: 100%
[41]
  residual activity: 100%
[42]
  residual activity: 100%
[43]
  residual activity: 83%
[44]
  residual activity: 86%

## Cn1nc(C(F)(F)F)cc1-c1cnc(N2CCc3cc(S(=O)(=O)Nc4c(F)cc(Cl)cc4F)cc(N4CCCC4=O)c32)nc1 [TP-020]
[1]
  residual activity: 97%
[2]
  residual activity: 72%
[3]
  residual activity: 82%
[4]
  residual activity: 100%
[5]
  residual activity: 94%
[6]
  residual activity: 68%
[7]
  residual activity: 81%
[8]
  residual activity: 100%
[9]
  residual activity: 83%
[10]
  residual activity: 76%
[11]
  residual activity: 93%
[12]
  residual activity: 82%
[13]
  residual activity: 84%
[14]
  residual activity: 82%
[15]
  residual activity: 96%
[16]
  residual activity: 100%
[17]
  residual activity: 100%
[18]
  residual activity: 72%
[19]
  residual activity: 82%
[20]
  residual activity: 100%
[21]
  residual activity: 84%
[22]
  residual activity: 86%
[23]
  residual activity: 100%
[24]
  residual activity: 73%
[25]
  residual activity: 100%
[26]
  residual activity: 100%
[27]
  residual activity: 89%
[28]
  residual activity: 100%
[29]
  residual activity: 83%
[30]
  residual activity: 98%
[31]
  residual activity: 87%
[32]
  residual activity: 100%
[33]
  residual activity: 100%
[34]
  residual activity: 100%
[35]
  residual activity: 96%
[36]
  residual activity: 93%
[37]
  residual activity: 82%
[38]
  inhibition: 55.3%
[39]
  residual activity: 100%
[40]
  residual activity: 100%
[41]
  residual activity: 94%
[42]
  residual activity: 85%
[43]
  residual activity: 99%
[44]
  residual activity: 85%
